“Also recorded” adds a separate entry of the source.
Key:
DIO mice [1] = test: Chronic treatment of DIO mice (body weight, food intake, DEXA, glucose homeostasis); format: in vivo; details: for body weight: 3 weeks i.p., ricolinostat 50 mg/kg, bavarostat 10 mg/kg, citarinostat 25 mg/kg; for food intake: 3 weeks treatment
Method: DIO mice were treated with ACY775 (10 mg/kg/day, i.p.) for 3 weeks. Daily body weight (g) of DIO mice treated with vehicle (n=17) or ACY775 (n=17) during 3 weeks of treatment was determined. Daily food intake (g) during 3 weeks of vehicle or ACY775 treatment was assessed. 24 hours' food intake per mouse during the first week of vehicle or ACY775 treatment was determined. Serum leptin (ng/ml) levels after 3 weeks of vehicle (n=24) or ACY775 (n=24) treatment was assessed. Lean mass (g), fat mass (g) and fat percentage (%) after 3 weeks of vehicle (n=17) or ACY775 (n=17) treatment measured by Dual-energy X-ray absorptiometry (DEXA) scan. DEXA scans were performed in two different cohorts. Glucose tolerance test (GTT) after 1 week of vehicle (n=33) or ACY775 (n=26) treated DIO mice was assessed. Area of curve (AOC) analysis for GTT was performed. Blood glucose (mg/dl) levels after 1 week of vehicle (n=17) or ACY775 (n=16) were assessed in treated DIO mice. Insulin tolerance test (ITT) was performed after 2 weeks of vehicle (n=31) or ACY775 (n=21) treatment of DIO mice. Serum insulin (ng/ml) levels were measured after 3 weeks of vehicle (n=22) or ACY775 (n=21) in treated DIO mice. A homeostatic model assessment of insulin resistance (HOMA-IR) was analyzed after 3 weeks of vehicle (n=14) or ACY775 (n=13) treated DIO mice.
Food intake was analyzed hourly until 3:00 am. […] DEXA scans were performed in two different cohorts.
DIO mice then were treated with ricolinostat (50 mg/kg, i.p.) for 3 weeks. Daily body weight (g), daily food intake (g), serum leptin (ng/ml) levels after 3 weeks of vehicle (n-8) or ricolinostat (n=8) treatment, lean mass (g); fat mass and fat percentage (%) after 3 weeks of vehicle (n=16) or ricolinostat (n=17) treatment measured by DEXA scan were determined.
Blood glucose (mg/dl) levels were measured after 1 week of vehicle (n=16) or ricolinostat (n=16) treated DIO mice. GTT after 1 week of vehicle (n=17) or ricolinostat (n=16) treatment of DIO mice was assessed. AOC analysis for GTT was performed. ITT after 2 weeks of vehicle (n=17) or ricolinostat (n=16) treated DIO mice was measured. Serum insulin (ng/ml) levels after 3 weeks of vehicle (n=8) or ricolinostat (n=8) treatment were measured in DIO mice. Liver sections from 3 weeks of vehicle or ricolinostat treated DIO mice were stained by H&E.
DIO mice then were treated with bavarostat (10 mg/kg, i.p.) for 3 weeks and daily body weight (g) of DIO mice treated with Veh (n=9) or bavarostat (n=9) measured during the three weeks of treatment period. Daily food intake (g) during 3 weeks of Veh or bavarostat treatment was also measured.
ACY1083 was administered to DIO mice as described in Example 3.

HDAC6 [2] = biological target: HDAC6 (Mus musculus (Mouse), UniProt Q9Z2V5); test: Ac-tubulin immunoblotting of tissues (HDAC6 inhibition in hypothalamus and brain regions); format: in vivo, mice; details: for HDAC6 inhibition in other brain regions: cerebrum, frontal lobe, temporal lobe, brainstem; for HDAC6 inhibition in the hypothalamus: mouse, in vivo
Sequence of HDAC6 (Mus musculus (Mouse), UniProt Q9Z2V5) (Q9Z2V5 whole entry): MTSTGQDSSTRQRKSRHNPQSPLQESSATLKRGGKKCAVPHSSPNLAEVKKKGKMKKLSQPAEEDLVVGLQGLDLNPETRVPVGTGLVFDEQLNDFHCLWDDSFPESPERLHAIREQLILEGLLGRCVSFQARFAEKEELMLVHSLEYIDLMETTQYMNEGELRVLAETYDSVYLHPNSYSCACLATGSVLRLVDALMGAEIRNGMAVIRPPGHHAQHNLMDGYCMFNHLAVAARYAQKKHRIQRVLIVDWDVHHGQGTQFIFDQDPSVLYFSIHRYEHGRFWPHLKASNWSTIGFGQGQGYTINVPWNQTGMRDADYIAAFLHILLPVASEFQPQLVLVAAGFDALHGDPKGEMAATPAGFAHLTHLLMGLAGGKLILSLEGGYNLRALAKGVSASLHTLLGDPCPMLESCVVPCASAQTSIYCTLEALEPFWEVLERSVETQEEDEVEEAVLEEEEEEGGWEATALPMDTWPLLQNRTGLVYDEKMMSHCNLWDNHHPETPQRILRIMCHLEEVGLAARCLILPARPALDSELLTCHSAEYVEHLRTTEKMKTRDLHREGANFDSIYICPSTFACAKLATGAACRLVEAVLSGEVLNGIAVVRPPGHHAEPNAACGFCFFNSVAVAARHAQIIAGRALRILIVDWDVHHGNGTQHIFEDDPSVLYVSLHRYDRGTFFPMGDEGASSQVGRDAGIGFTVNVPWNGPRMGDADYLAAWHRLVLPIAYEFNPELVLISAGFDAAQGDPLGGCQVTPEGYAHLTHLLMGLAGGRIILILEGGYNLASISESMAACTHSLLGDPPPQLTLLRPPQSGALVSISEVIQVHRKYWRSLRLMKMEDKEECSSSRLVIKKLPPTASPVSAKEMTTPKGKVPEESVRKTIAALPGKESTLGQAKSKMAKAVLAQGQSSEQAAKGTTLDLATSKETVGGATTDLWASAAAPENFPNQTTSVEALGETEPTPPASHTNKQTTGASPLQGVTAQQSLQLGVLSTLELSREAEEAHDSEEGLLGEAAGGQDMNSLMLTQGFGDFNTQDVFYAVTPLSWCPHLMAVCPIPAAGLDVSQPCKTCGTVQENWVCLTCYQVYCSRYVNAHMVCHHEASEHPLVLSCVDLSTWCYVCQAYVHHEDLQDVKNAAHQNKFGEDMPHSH

[3] = tested on: ACY775-responsive DMH neurons; test: Chemogenetic (hM3Dq) activation of ACY775-responsive DMH neurons; format: in vivo; details: ACY775-induced hM3Dq TRAP2 DIO mice
Method: Next, the ACY775-responsive DMH neurons were chemogenically activated to investigate whether activation of these neurons would be sufficient to reduce the food intake and the bodyweight. Adeno-associated virus (AAV) carrying Cre-dependent hM3Dq-DREADD fused to mCherry transgene (AAV-DIO-hM3Dq-mCherry) was injected bilaterally into the DMH of TRAP2 DIO mice. Four weeks after injections, a single dose of ACY775 (10 mg/kg, i.p.) or vehicle was injected to induce c-fos expression. Subsequently, 4-OHT injection was performed after 5 h to activate c-fos driven Cre in the fasted DIO mice. The mCherry signal was expressed only in ACY775-treated TRAP2 DIO mice and was absent in vehicle-treated TRAP2 DIO mice.
Next, both AAV-DIO-hM3Dq-mCherry- and ACY775-injected, and vehicle-treated TRAP2 DIO mice with saline were treated for 3 days and with clozapine N-oxide (CNO) for 4 days. […] The blood glucose levels at the end of saline and CNO treatment was also measured. […] Blood glucose lowering effect of CNO was absent compared in Veh-induced TRAP2 DIO mice and in all the saline-treated mice.

HDAC6-KO DIO mice = test: Chronic treatment of DIO WT versus HDAC6 KO mice; format: in vivo; details: DIO mice, 3 weeks; ACY775 10, ACY738 50, Tubastatin A 25 mg/kg/day i.p.
[4] = Brain/plasma ratio and brain or hypothalamus penetration; details: in vivo
[5] = in vivo; cited from earlier work
HDAC6 [6] = test: Ac-tubulin immunoblotting in HEK293 cells; format: cell-based
p-STAT3^Tyr705 = test: Leptin-stimulated hypothalamic STAT3 Tyr705 phosphorylation in DIO mice; format: in vivo; details: 45 minutes after leptin 1 mg/kg i.p.
Method: DIO mice were pretreated with ACY775 (10 mg/kg/day, i.p.) or vehicle for 3 days, which was followed by a last injection of ACY775 (or vehicle) in the morning of fourth day. 6 hours later mice were injected with saline or leptin (1 mg/kg, i.p.) and hypothalamus were extracted after 45 minutes following the leptin injection. Representative immunoblots for STAT3^Tyr705 phosphorylation and total STAT3 from the hypothalamus. Quantification of the ratio of p-STAT3^Tyr705 to total-STAT3 signal in the immunoblots. The results were reproduced in three independent experiments. The results were analyzed hourly.
DIO mice were pretreated with ACY775 (10 mg/kg/day, i.p.) or vehicle for 3 days, which was followed by a last injection of ACY775 (or vehicle) in the morning of fourth day. 6 hours later mice were injected with saline or leptin (1 mg/kg, i.p.) and the hypothalamus were extracted after 45 minutes following the leptin injection.
6 hours later mice were injected with saline or leptin (1 mg/kg, i.p.) and hypothalamus were extracted after 45 minutes following the leptin injection. Immunoblots for STAT3^Tyr705 phosphorylation and total STAT3 from the hypothalamus were made to quantify the ratio of p-STAT3^Tyr705 to total-STAT3 signal in the immunoblots. The results were reproduced in two independent experiments.
DIO mice were pretreated with ricolinostat (50 mg/kg/day, i.p.) or vehicle 3 days, which was followed by a last injection of ricolinostat (or vehicle) in the morning of fourth day. 6 hours later mice were injected with saline or leptin (1 mg/kg, i.p.) and the hypothalamus were extracted after 45 minutes following the leptin injection. Immunoblots were performed for STAT3^Tyr705 phosphorylation and total STAT3 from the hypothalamus. The ratio of p-STAT3^Tyr705 to total STAT3 signal in the immunoblots was quantified.

DIO mice [7] = test: Acute leptin co-treatment in DIO mice (body weight, food intake 15 h); format: in vivo; details: for body weight, agent alone: ACY775 10 mg/kg, ricolinostat 25 mg/kg
Method: DIO mice were pretreated with ACY775 (10 mg/kg/day, i.p.) or vehicle for 3 days, which was followed by co-treatment with ACY775 (or vehicle) and leptin (1 mg/kg, i.p.) (or saline) (n=9 for each group), % change in body weight 15 h after leptin treatment, food intake (g) during the 15 h period after leptin treatment. The results in were reproduced in two independent experiments.
Diet induced obese (DIO) mice were pretreated with ACY775 (10 mg/kg/day, i.p.) or vehicle for 3 days, which was followed by co-treatment with ACY775 (or vehicle) and leptin (1 mg/kg, i.p.) (or saline) (n=9 for each group). Mice were evaluated for % change in body weight 15 h after leptin treatment, and food intake (g) during the 15 h period after leptin treatment.
DIO mice were pretreated with ricolinostat (25 mg/kg/day, i.p.) or vehicle for 3 days, which was followed by co-treatment with ricolinostat (or vehicle) and leptin (1 mg/kg, i.p.) (or saline) (n=32 for each group). Change in body weight 15 h after leptin treatment, and food intake (g) during the 15 h period after leptin treatment were determined. The results were reproduced in two independent experiments.

**Q.** What does the source list for `CC1CCC(C(C)(C2CCC(C)CC2)C2CCC(C(C)C(C)CCCCC(C)C(C)C)CC2)CC1` (stereo not drawn) [ACY257]?
**A.** body weight (DIO mice [1]; DIO mice): as effective as ACY775 in reducing body weight; HDAC6 inhibition in other brain regions (HDAC6 [2]): does not inhibit HDAC6 in other brain regions

**Q.** Which results are given for `C[N+]1([O-])CCN(C2=Nc3cc(Cl)ccc3Nc3ccccc32)CC1` [CNO, clozapine N-oxide]?
**A.** blood glucose levels [3]: significantly decreased blood glucose levels; bodyweight and food intake ([3]; CNO 4 days): significant reduction in bodyweight and food intake

**Q.** What does the source list for `CN(Cc1ccc(C(=O)NO)cc1F)CC12CC3CC(CC(C3)C1)C2` [bavarostat, 4-(((((3r,5r,7r)-adamantan-1-yl)methyl)(methyl)amino)methyl)-3-fluoro-N-hydroxybenzamide]?
**A.** body weight, WT versus HDAC6 KO (HDAC6-KO DIO mice): treatment of wild type mice but not HDAC6 Knockout animals with bavarostat caused weight loss; also recorded: equivalent to vehicle in HDAC-6 KO mice; body weight (DIO mice [1]; DIO mice): statistically significantly effective in reducing food intake and body weight; food intake (DIO mice [1]; DIO mice): Appetite was initially suppressed but then rose over time; food intake and total body fat mass (summary) (DIO mice [1]; high fat diet induced mice): significant reduction of food intake and total body fat mass; penetrance into the hypothalamus [4]: high penetrance of the hypothalamus; brain penetrance / BBB permeability [5]: high brain penetrance

**Q.** Which “body weight” value (DIO mice [1]; DIO mice) does the source give for `O=C(CCCCCCNC(=O)c1cnc(N(c2ccccc2)c2ccccc2Cl)nc1)NO` [citarinostat] here?
**A.** not effective in reducing body weight

**Q.** What about the “HDAC6 inhibition in other brain regions” value (HDAC6 [2]) of the same molecule?
**A.** inhibits HDAC6 in other brain regions

**Q.** What about the “HDAC6 inhibition in the hypothalamus” value (HDAC6 [2]) of the same molecule?
**A.** does not show HDAC6 inhibition in the AGP neurons in the hypothalamus

**Q.** What about the “HDAC6 inhibition in the hypothalamus” value (HDAC6 [2]; listed as Citarinostat) of the same molecule?
**A.** but not in the hypothalamus

**Q.** And the “brain penetrance / BBB permeability” value [5]?
**A.** good brain penetrance

**Q.** Which results are given for `O=C(CCCCCCNC(=O)c1cnc(N(c2ccccc2)c2ccccc2)nc1)NO` [ricolinostat]?
**A.** insulin tolerance test (ITT) (DIO mice [1]; DIO mice): did not improves; hepatic steatosis (H&E liver) (DIO mice [1]; DIO mice, 3 weeks): no decrease in the hepatic steatosis; body weight (DIO mice [1]; DIO mice): minimal decrease in bodyweight for the first couple of days without creating any meaningful or significant decreases; also recorded: does not reduce body weight; food intake (DIO mice [1]; DIO mice): reduced transitionally during the first 2-3 days of treatment but then rebounded; glucose tolerance test (GTT) (DIO mice [1]; DIO mice, after 1 week): did not improves glucose tolerance; serum insulin levels (DIO mice [1]; DIO mice, after 3 weeks): did not reduce insulin levels; tubulin acetylation (HDAC6 inhibitor activity in cells) (HDAC6 [6]): confirmation of Ricolinstat's HDAC6 inhibitory activity; penetrance into the hypothalamus [4]: neither of which have high penetrance into the hypothalamus; leptin-stimulated hypothalamic p-STAT3^Tyr705 (p-STAT3^Tyr705): did not significantly increase STAT3^Tyr705 phosphorylation; body weight, agent alone (DIO mice [7]; 15 h, leptin 1 mg/kg i.p.): did not decrease the bodyweight; food intake, agent alone (DIO mice [7]; 15 h period): had no effect on the food intake; body weight, leptin after pre-treatment with inhibitor (DIO mice [7]; 3 days pre-treatment, leptin 1 mg/kg i.p., 15 h): did not reduce the body weight; food intake, leptin together with inhibitor (DIO mice [7]; leptin 1 mg/kg i.p., 15 h period): had no effect on the food intake; brain penetrance / BBB permeability [5]: poor BBB permeability; brain/plasma ratio [5]: < 0.01

**Q.** Which results are given for “leptin: peptide hormone that serves as the afferent signal in a negative feedback loop regulating food intake and body weight”?
**A.** leptin-stimulated hypothalamic p-STAT3^Tyr705 (p-STAT3^Tyr705): did not significantly increase STAT3^Tyr705 phosphorylation; body weight, agent alone (DIO mice [7]; 15 h, leptin 1 mg/kg i.p.): did not significantly alter their bodyweight; also recorded: did not change their bodyweight; food intake, agent alone (DIO mice [7]; 15 h period): did not significantly change the food intake
